Literature values as cited in patent publication US20250231185A1, “Coronavirus T Cell Epitopes, Megapools and Uses Thereof” (La Jolla Institute for Immunology, priority 2021, published 2025).
Like-named read-outs stand apart in the source and are kept apart here.

System: CD8+ T cells
Details: cited from earlier work
[1] = T cell subset (CD4 or CD8) recognizing the SARS-CoV-2-derived epitope
[2] = T cell type (CD4 or CD8) recognizing the SARS-CoV-2 epitope
[3] = CD8RE megapool peptides (non-spike SARS-CoV-2 antigens), dominant epitope Yes/No
[4] = SARS-CoV-2 Ag S, T cell type recognizing the epitope
[5] = CD8R (D) megapool epitopes, dominant = recognized by 3 or more donors/different studies
[6] = SARS-CoV-2-derived CD8 epitopes, dominant = recognized by 3 or more donors/different studies

Substance: 658 (FEYYHTTDPSF) [compound 658]
- Restriction [1]: CD8

Substance: 946 (STVFPPTSF) [compound 946]
- Restriction [2]: CD8

Substance: 2922 (KMKDLSPRW) [compound 2922]
- Dominant [3]: Yes (more dominant epitopes are defined by being recognized by 3 or more donors/different studies)

Substance: 1464 (CMTSCCSCLK) [compound 1464]
- Restriction [4]: CD8

Substance: 698 (DVVAIDYKHY) [compound 698]
- Restriction [1]: CD8

Substance: 1668 (GTITVEELK) [compound 1668]
- Dominant [5]: Yes (more dominant epitopes are defined by being recognized by 3 or more donors/different studies)

Substance: 607 (YLKLTDNVYIK) [compound 607]
- Restriction [1]: CD8

Substance: 530 (DYKHWPQIAQF) [compound 530]
- Restriction [1]: CD8

Substance: 557 (FSKQLQQSM) [compound 557]
- Dominant [6]: Yes (more dominant epitopes are defined by being recognized by 3 or more donors/different studies)
- Restriction [1]: CD8

Substance: 1768 (ASMPTTIAK) [compound 1768]
- Dominant [5]: Yes (more dominant epitopes are defined by being recognized by 3 or more donors/different studies)

Substance: 519 (LLLLDRLNQL) [compound 519]
- Dominant [6]: Yes (more dominant epitopes are defined by being recognized by 3 or more donors/different studies)
- Restriction [1]: CD8

Substance: 2919 (FPRGQGVPI) [compound 2919]
- Dominant [3]: Yes (more dominant epitopes are defined by being recognized by 3 or more donors/different studies)

Substance: 1449 (SFKEELDKY) [compound 1449]
- Restriction [4]: CD8

Substance: 1088 (LPKGIMMNV) [compound 1088]
- Restriction [2]: CD8

Substance: 683 (ITDVFYKENSY) [compound 683]
- Dominant [6]: Yes (more dominant epitopes are defined by being recognized by 3 or more donors/different studies)
- Restriction [1]: CD8

Substance: 585 (DTVIEVQGYK) [compound 585]
- Restriction [1]: CD8

Substance: 1071 (SLENVAFNV) [compound 1071]
- Restriction [2]: CD8

Substance: 1454 (NESLIDLQEL) [compound 1454]
- Restriction [4]: CD8

Substance: 1685 (YYRRATRRIR) [compound 1685]
- Dominant [5]: Yes (more dominant epitopes are defined by being recognized by 3 or more donors/different studies)

Substance: 2978 (AIMTRCLAV) [compound 2978]
- Dominant [3]: Yes (more dominant epitopes are defined by being recognized by 3 or more donors/different studies)

Substance: 1766 (SAPPAQYEL) [compound 1766]
- Dominant [5]: Yes (more dominant epitopes are defined by being recognized by 3 or more donors/different studies)

Substance: 1791 (NTCDGTTFTY) [compound 1791]
- Dominant [5]: Yes (more dominant epitopes are defined by being recognized by 3 or more donors/different studies)

Substance: 1448 (DSFKEELDKY) [compound 1448]
- Restriction [4]: CD8

Substance: 1803 (IVGVALLAVF) [compound 1803]
- Dominant [5]: Yes (more dominant epitopes are defined by being recognized by 3 or more donors/different studies)

Substance: 1468 (VLKGVKLHY) [compound 1468]
- Restriction [4]: CD8

Substance: 590 (VLNEKCSAY) [compound 590]
- Restriction [1]: CD8

Substance: 1778 (TPKYKFVRI) [compound 1778]
- Dominant [5]: Yes (more dominant epitopes are defined by being recognized by 3 or more donors/different studies)

Substance: 1326 (VLTESNKKF) [compound 1326]
- Restriction [4]: CD8

Substance: 2960 (FYAYLRKHF) [compound 2960]
- Dominant [3]: Yes (more dominant epitopes are defined by being recognized by 3 or more donors/different studies)

Substance: 933 (FVENPDILRV) [compound 933]
- Restriction [2]: CD8

Substance: 941 (HVDTDLTKPY) [compound 941]
- Restriction [2]: CD8

Substance: 1343 (AEHVNNSY) [compound 1343]
- Restriction [4]: CD8

Substance: 1689 (SPRWYFYYL) [compound 1689]
- Dominant [5]: Yes (more dominant epitopes are defined by being recognized by 3 or more donors/different studies)

Substance: 1384 (LPPLLTDEM) [compound 1384]
- Restriction [4]: CD8

Substance: 667 (SALNHTKKW) [compound 667]
- Restriction [1]: CD8

Substance: 690 (NYYKKDNSY) [compound 690]
- Restriction [1]: CD8

Substance: 1036 (YYPSARIVY) [compound 1036]
- Restriction [2]: CD8

Substance: 1380 (TLADAGFIK) [compound 1380]
- Restriction [4]: CD8

Substance: 2907 (TLACFVLAAV) [compound 2907]
- Dominant [3]: Yes (more dominant epitopes are defined by being recognized by 3 or more donors/different studies)

Substance: 614 (RTNVYLAVF) [compound 614]
- Restriction [1]: CD8

Substance: 1797 (CTDDNALAYY) [compound 1797]
- Dominant [5]: Yes (more dominant epitopes are defined by being recognized by 3 or more donors/different studies)

Substance: 3038 (IVGVALLAVF) [compound 3038]
- Dominant [3]: Yes (more dominant epitopes are defined by being recognized by 3 or more donors/different studies)

Substance: 2973 (VYIGDPAQL) [compound 2973]
- Dominant [3]: Yes (more dominant epitopes are defined by being recognized by 3 or more donors/different studies)

Substance: 1814 (VFITLCFTLK) [compound 1814]
- Dominant [5]: Yes (more dominant epitopes are defined by being recognized by 3 or more donors/different studies)

Substance: 1777 (TSEDMLNPNY) [compound 1777]
- Dominant [5]: Yes (more dominant epitopes are defined by being recognized by 3 or more donors/different studies)

Substance: 912 (SDGTGTIY) [compound 912]
- Restriction [2]: CD8

Substance: 1406 (RLDKVEAEVQI) [compound 1406]
- Restriction [4]: CD8

Substance: 637 (AIVSTIQRK) [compound 637]
- Restriction [1]: CD8

Substance: 1729 (VLQAVGACV) [compound 1729]
- Dominant [5]: Yes (more dominant epitopes are defined by being recognized by 3 or more donors/different studies)

Substance: 510 (ATEGALNTPKDHI) [compound 510]
- Dominant [6]: Yes (more dominant epitopes are defined by being recognized by 3 or more donors/different studies)
- Restriction [1]: CD8

Substance: 2990 (KMQRMLLEK) [compound 2990]
- Dominant [3]: Yes (more dominant epitopes are defined by being recognized by 3 or more donors/different studies)

Substance: 601 (MELTPVVQTI) [compound 601]
- Restriction [1]: CD8

Substance: 1710 (FSKQLQQSM) [compound 1710]
- Dominant [5]: Yes (more dominant epitopes are defined by being recognized by 3 or more donors/different studies)

Substance: 1409 (AEVQIDRL) [compound 1409]
- Restriction [4]: CD8

Substance: 1767 (NYMPYFFTL) [compound 1767]
- Dominant [5]: Yes (more dominant epitopes are defined by being recognized by 3 or more donors/different studies)

Substance: 653 (HTQVVDMSMTY) [compound 653]
- Restriction [1]: CD8

Substance: 3009 (FSAVGNICY) [compound 3009]
- Dominant [3]: Yes (more dominant epitopes are defined by being recognized by 3 or more donors/different studies)

Substance: 1050 (MYKGLPWNV) [compound 1050]
- Restriction [2]: CD8

Substance: 2926 (ATEGALNTPK) [compound 2926]
- Dominant [3]: Yes (more dominant epitopes are defined by being recognized by 3 or more donors/different studies)

Substance: 1792 (FTYASALWEI) [compound 1792]
- Dominant [5]: Yes (more dominant epitopes are defined by being recognized by 3 or more donors/different studies)

Substance: 3015 (FLNGSCGSV) [compound 3015]
- Dominant [3]: Yes (more dominant epitopes are defined by being recognized by 3 or more donors/different studies)

Substance: 1671 (NRFLYIIKL) [compound 1671]
- Dominant [5]: Yes (more dominant epitopes are defined by being recognized by 3 or more donors/different studies)

Substance: 1743 (AIMTRCLAV) [compound 1743]
- Dominant [5]: Yes (more dominant epitopes are defined by being recognized by 3 or more donors/different studies)

Substance: 2912 (AVILRGHLR) [compound 2912]
- Dominant [3]: Yes (more dominant epitopes are defined by being recognized by 3 or more donors/different studies)

Substance: 975 (YAISAKNRAR) [compound 975]
- Restriction [2]: CD8

Substance: 1356 (AYSNNSIAI) [compound 1356]
- Restriction [4]: CD8

Substance: 1306 (RLFRKSNLK) [compound 1306]
- Restriction [4]: CD8

Substance: 934 (VENPDILRV) [compound 934]
- Restriction [2]: CD8

Substance: 1815 (IMLIIFWFSL) [compound 1815]
- Dominant [5]: Yes (more dominant epitopes are defined by being recognized by 3 or more donors/different studies)

Substance: 560 (APHGHVMVEL) [compound 560]
- Restriction [1]: CD8

Substance: 1693 (VLQLPQGTTL) [compound 1693]
- Dominant [5]: Yes (more dominant epitopes are defined by being recognized by 3 or more donors/different studies)

Substance: 543 (EVTPSGTWLTY) [compound 543]
- Restriction [1]: CD8

Substance: 616 (NLYDKLVSSFL) [compound 616]
- Restriction [1]: CD8

Substance: 2958 (MVMCGGSLYV) [compound 2958]
- Dominant [3]: Yes (more dominant epitopes are defined by being recognized by 3 or more donors/different studies)

Substance: 1726 (RILGAGCFV) [compound 1726]
- Dominant [5]: Yes (more dominant epitopes are defined by being recognized by 3 or more donors/different studies)

Substance: 1387 (LTDEMIAQYT) [compound 1387]
- Restriction [4]: CD8

Substance: 511 (GTRNPANNA) [compound 511]
- Restriction [1]: CD8

Substance: 923 (VVYRAFDIY) [compound 923]
- Restriction [2]: CD8

Substance: 1068 (YNLWNTFTRL) [compound 1068]
- Restriction [2]: CD8

Substance: 968 (KSAGFPFNK) [compound 968]
- Restriction [2]: CD8

Substance: 612 (LLSAGIFGA) [compound 612]
- Restriction [1]: CD8

Substance: 921 (YLASGGQPI) [compound 921]
- Restriction [2]: CD8

Substance: 518 (LALLLLDRL) [compound 518]
- Dominant [6]: Yes (more dominant epitopes are defined by being recognized by 3 or more donors/different studies)
- Restriction [1]: CD8

Substance: 2945 (FSKQLQQSM) [compound 2945]
- Dominant [3]: Yes (more dominant epitopes are defined by being recognized by 3 or more donors/different studies)

Substance: 579 (KLVNKFLAL) [compound 579]
- Dominant [6]: Yes (more dominant epitopes are defined by being recognized by 3 or more donors/different studies)
- Restriction [1]: CD8
